Activity calls are given as the source filed them. The rule behind the calls is not given here.
Experiments:
[1] = target: Protein cereblon/Tyrosine-protein phosphatase non-receptor type 2 (Homo sapiens) (UniProt P17706+Q96SW2); assay: PROTAC activity at CRBN/PTPN2 in human Jurkat cells assessed as induction of PTPN2 degradation at 0.01 to 10 uM by Western blot analysis; type: cell-based; conditions: dose 0.01-10 µM
[2] = target: T1, von Hippel-Lindau disease tumor suppressor/Tyrosine-protein phosphatase non-receptor type 2 (Homo sapiens, UniProt P17706+P40337); assay: PROTAC activity at VHL/PTPN2 in human Jurkat cells assessed as induction of PTPN2 degradation at 100 nM by Western blot analysis relative to control; type: cell-based
T1 sequence (P17706 whole entry, looked up): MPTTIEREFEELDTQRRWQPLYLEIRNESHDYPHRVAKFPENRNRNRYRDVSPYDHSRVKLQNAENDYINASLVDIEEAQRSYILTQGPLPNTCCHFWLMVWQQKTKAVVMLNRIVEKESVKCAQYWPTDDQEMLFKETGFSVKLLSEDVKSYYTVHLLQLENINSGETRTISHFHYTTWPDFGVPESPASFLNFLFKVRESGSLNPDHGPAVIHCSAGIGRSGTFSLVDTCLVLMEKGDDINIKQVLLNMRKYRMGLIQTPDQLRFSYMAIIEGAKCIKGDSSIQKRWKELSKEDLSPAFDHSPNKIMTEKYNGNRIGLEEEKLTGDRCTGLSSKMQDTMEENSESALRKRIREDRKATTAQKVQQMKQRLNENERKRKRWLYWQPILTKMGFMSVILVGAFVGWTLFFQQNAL
T1 sequence (P40337 whole entry, looked up): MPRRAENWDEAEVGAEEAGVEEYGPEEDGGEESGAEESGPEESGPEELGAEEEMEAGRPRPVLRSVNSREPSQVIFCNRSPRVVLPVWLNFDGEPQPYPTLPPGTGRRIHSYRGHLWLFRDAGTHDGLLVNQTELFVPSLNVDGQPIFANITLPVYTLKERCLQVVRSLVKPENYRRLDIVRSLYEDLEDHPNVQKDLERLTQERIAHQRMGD

[3] = target: T1, von Hippel-Lindau disease tumor suppressor/Tyrosine-protein phosphatase non-receptor type 2; assay: PROTAC activity at VHL/PTPN2 in human Jurkat cells assessed as induction of PTPN2 degradation at 10 uM by Western blot analysis relative to control; type: cell-based
[4] = target: T1, von Hippel-Lindau disease tumor suppressor/Tyrosine-protein phosphatase non-receptor type 2; assay: PROTAC activity at VHL/PTPN2 in human Jurkat cells assessed as induction of PTPN2 degradation at 1 uM by Western blot analysis relative to control; type: cell-based
[5] = target: T1, von Hippel-Lindau disease tumor suppressor/Tyrosine-protein phosphatase non-receptor type 2; assay: PROTAC activity at VHL/PTPN2 in human Jurkat cells assessed as residual activity of PTPN2 level at 1 uM by Western blot analysis relative to control; type: cell-based
Splenocyte = assay: Induction of cell proliferation in anti-CD3/CD28-stimulated mouse splenocytes at 0.625 to 10 uM incubated for 3 days by CFSE dye based flow cytometry; type: functional; conditions: dose 0.625-10 µM, time 3.0 day

Sequence of Protein cereblon/Tyrosine-protein phosphatase non-receptor type 2 (Homo sapiens) (P17706 whole entry, looked up): as the sequence (P17706 whole entry, looked up) above
Sequence of Protein cereblon/Tyrosine-protein phosphatase non-receptor type 2 (Homo sapiens) (Q96SW2 whole entry, looked up): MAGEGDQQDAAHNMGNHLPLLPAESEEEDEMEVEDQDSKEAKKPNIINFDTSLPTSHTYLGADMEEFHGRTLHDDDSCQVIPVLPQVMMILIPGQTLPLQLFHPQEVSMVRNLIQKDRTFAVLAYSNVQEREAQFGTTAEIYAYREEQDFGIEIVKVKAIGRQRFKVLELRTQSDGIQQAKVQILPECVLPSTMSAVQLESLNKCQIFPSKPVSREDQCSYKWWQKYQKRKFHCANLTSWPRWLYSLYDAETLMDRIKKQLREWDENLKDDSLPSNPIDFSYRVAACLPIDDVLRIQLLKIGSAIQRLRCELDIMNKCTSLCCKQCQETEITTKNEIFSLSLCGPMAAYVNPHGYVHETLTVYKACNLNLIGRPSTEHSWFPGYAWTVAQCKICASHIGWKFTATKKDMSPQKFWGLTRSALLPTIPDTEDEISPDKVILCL

Activity [1]	Activity [2] [%]	Activity [3] [%]	Activity [4] [%]	Activity [5] [%]	SMILES	Activity (Splenocyte)
Active	–	–	–	–	O=C(Cn1cc(-c2ccc3cc(O)c(N4CC(=O)NS4(=O)=O)c(F)c3c2)cn1)NCCCCCNc1cccc2c1C(=O)N(C1CCC(=O)NC1=O)C2=O (configuration not stated)	–
Active	–	–	–	–	Cn1c(=O)n(C2CCC(=O)NC2=O)c2ccc(C3CCN(CCn4cc(-c5ccc6cc(O)c(N7CC(=O)NS7(=O)=O)c(F)c6c5)cn4)CC3)cc21 (configuration not stated)	–
–	-2	62	2	–	Cc1ncsc1-c1ccc([C@H](C)NC(=O)[C@@H]2C[C@@H](O)CN2C(=O)[C@@H](NC(=O)c2cn(CCCNC(=O)Cn3cc(-c4ccc5cc(O)c(N6CC(=O)NS6(=O)=O)c(F)c5c4)cn3)nn2)C(C)(C)C)cc1	–
–	-17	99	72	20	Cc1ncsc1-c1ccc([C@H](C)NC(=O)[C@@H]2C[C@@H](O)CN2C(=O)[C@@H](NC(=O)CNC2CCN(C(=O)Cn3cc(-c4ccc5cc(O)c(N6CC(=O)NS6(=O)=O)c(F)c5c4)cn3)CC2)C(C)(C)C)cc1	–
–	27	94	60	–	Cc1ncsc1-c1ccc([C@H](C)NC(=O)[C@@H]2C[C@@H](O)CN2C(=O)[C@@H](NC(=O)CCCCCCCCNC(=O)Cn2cc(-c3ccc4cc(O)c(N5CC(=O)NS5(=O)=O)c(F)c4c3)cn2)C(C)(C)C)cc1	–
–	29	92	77	–	Cc1ncsc1-c1ccc([C@H](C)NC(=O)[C@@H]2C[C@@H](O)CN2C(=O)[C@@H](NC(=O)CCCCNC(=O)Cn2cc(-c3ccc4cc(O)c(N5CC(=O)NS5(=O)=O)c(F)c4c3)cn2)C(C)(C)C)cc1	–
–	26	98	81	–	Cc1ncsc1-c1ccc([C@H](C)NC(=O)[C@@H]2C[C@@H](O)CN2C(=O)[C@@H](NC(=O)CCCNC(=O)Cn2cc(-c3ccc4cc(O)c(N5CC(=O)NS5(=O)=O)c(F)c4c3)cn2)C(C)(C)C)cc1	–
–	-18	91	33	–	Cc1ncsc1-c1ccc([C@H](C)NC(=O)[C@@H]2C[C@@H](O)CN2C(=O)[C@@H](NC(=O)CNC(=O)Cn2cc(-c3ccc4cc(O)c(N5CC(=O)NS5(=O)=O)c(F)c4c3)cn2)C(C)(C)C)cc1	–
–	–	–	–	–	Cc1ncsc1-c1ccc([C@H](C)NC(=O)[C@@H]2C[C@@H](Oc3ccccc3)CN2C(=O)[C@@H](NC(=O)CCCCCNC(=O)Cn2cc(-c3ccc4cc(O)c(N5CC(=O)NS5(=O)=O)c(F)c4c3)cn2)C(C)(C)C)cc1	inactive

From ChEMBL document CHEMBL5390283, “Discovery of PVD-06 as a Subtype-Selective and Efficient PTPN2 Degrader” (J Med Chem, 2023)
